Assay results as given in patent US11787775B2, “Therapeutic compounds and methods of use” (priority 2020, dated 2023).

Columns and labels:
Type in all cases: binding
TEAD1 = TEAD1 (Homo sapiens (Human), UniProt P28347); test: TEAD lipid pocket TR-FRET (Lipid HTRF) probe competition assay; conditions: 30 mins incubation with compound; read-out: Lipid HTRF TEAD1 IC50
Experimental: (§1) His-tagged TEAD proteins are pre-incubated with TEAD project compounds for 30 minutes or 4 hours at room temperature. Biotinylated lipid pocket probes are then added to the TEAD/Compound mixture and incubated for 60 minutes at room temperature. The lipid pocket probe competes with the test compound for the TEAD lipid pocket until equilibrium is reached. After 60 minutes, Europium labelled anti-His (Perkin Elmer #ADO 110) and XL665 labelled streptavidin (CIS Bio 610SAXAC) are added to the TEAD/test compound/lipid pocket mixture and incubated for 30 minutes or 4 hours. […] If a TEAD lipid pocket binder such as binds and displaces the lipid pocket probe, the disruption of the TEAD:probe interaction results in a decrease in TR-FRET signal. The potency of compounds as TEAD lipid pocket binders is determined by IC50 value generated using a non-linear 4 parameter curve fit.
(§2) Note that the “Compound Number” in Table 2 and Table 3 corresponds to the “Compound Number” in Table 1.

TEAD2 = TEAD2 (Homo sapiens (Human), UniProt Q15562); test: as above; conditions: 30 mins incubation with compound; read-out: Lipid HTRF TEAD2 IC50
Experimental: as §1, §2

TEAD3 = TEAD3 (Homo sapiens (Human), UniProt Q99594); test: as above; conditions: 30 mins incubation with compound
Experimental: as §1, §2

TEAD4 = TEAD4 (Homo sapiens (Human), UniProt Q15561); test: as above; conditions: 30 mins incubation with compound; read-out: Lipid HTRF TEAD4 IC50
Experimental: as §1, §2

TEAD1 YAP50-100 = TEAD1 YAP50-100 (Homo sapiens (Human), UniProt P28347); test: TEAD-YAP protein-protein interaction HTRF assay; conditions: TEAD1 YAP50-100 HTRF combined EC50, 30 mins incubation with compound
Experimental: (§3) Purified His-tagged TEAD protein (YAP Binding Domain, amino acids 217-447) is pre-incubated with Europium labelled anti-His antibody tracer (Perkin Elmer Cat #AD0110). Small molecule Inhibitors are then incubated with the TEAD-Eu protein complex for 30 minutes or 4 hours to allow for binding to TEAD protein. Biotinylated YAP peptide for TEAD-YAP assays (AA's 50-100) or biotinylated TAZ peptide for TEAD-TAZ assays (AA's 13-57) that has been pre-incubated with streptavidin −xl665 acceptor (CIS-Bio Cat #610SAXAC) or is added to the compound-TEAD mix. The TEAD-YAP-inhibitor mixture is then incubated for 60 minutes at room temperature. All reactions are carried out in a polystyrene plate. After 60 minutes, the plate is read on a plate reader using TR-FRET mode with wavelengths of 665 nm/615 nm. If YAP or TAZ binds to TEAD as expected, a TR-FRET signal results from the proximity of YAP or TAZ and TEAD after binding. If an inhibitor such as peptide 17 (Selleckchem Cat #S8164) interferes with YAP-TEAD or TAZ-TEAD binding, the disruption of the YAP or TAZ:TEAD interaction results in a decrease in TR-FRET signal. The potency of compounds as YAP:TEAD or TAZ:TEAD protein-protein interaction (PPi) inhibitors is determined by an IC50 or EC50 value generated using a non-linear four parameter curve fit. The extent to which representative examples of the disclosed compounds are able to inhibit interaction between TEAD1, TEAD2, TEAD3 or TEAD4 and YAP truncated from amino acids 50-100 or TAZ truncated from amino acids 13-57 as measured by Homogeneous Time Resolved Fluorescence (HTRF) to generate EC50 and IC50 data.
(§4) Note that the “Compound Number” in Table 4 corresponds to the “Compound Number” in Table 1. […]

TEAD2 YAP50-100 = TEAD2 YAP50-100 (Homo sapiens (Human), UniProt Q15562); test: TEAD-YAP protein-protein interaction HTRF assay; conditions: TEAD2 YAP50-100 HTRF combined EC50, 30 mins incubation with compound
Experimental: as §3, §4

TEAD3 YAP50-100 = TEAD3 YAP50-100 (Homo sapiens (Human), UniProt Q99594); test: TEAD-YAP protein-protein interaction HTRF assay; conditions: TEAD3 YAP50-100 HTRF combined EC50, 30 mins incubation with compound
Experimental: as §3, §4

TEAD4 YAP50-100 = TEAD4 YAP50-100 (Homo sapiens (Human), UniProt Q15561); test: TEAD-YAP protein-protein interaction HTRF assay; conditions: TEAD4 YAP50-100 HTRF combined EC50, 30 mins incubation with compound
Experimental: as §3, §4

TEAD1 YAP50-100, sequence (P28347 209-426): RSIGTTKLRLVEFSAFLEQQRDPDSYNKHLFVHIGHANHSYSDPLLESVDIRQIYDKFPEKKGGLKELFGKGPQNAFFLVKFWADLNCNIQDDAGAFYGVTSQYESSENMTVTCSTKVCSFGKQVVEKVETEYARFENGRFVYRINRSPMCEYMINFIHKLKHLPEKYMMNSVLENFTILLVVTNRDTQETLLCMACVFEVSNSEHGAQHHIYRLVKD
TEAD3, sequence (Q99594 whole entry, species assumed): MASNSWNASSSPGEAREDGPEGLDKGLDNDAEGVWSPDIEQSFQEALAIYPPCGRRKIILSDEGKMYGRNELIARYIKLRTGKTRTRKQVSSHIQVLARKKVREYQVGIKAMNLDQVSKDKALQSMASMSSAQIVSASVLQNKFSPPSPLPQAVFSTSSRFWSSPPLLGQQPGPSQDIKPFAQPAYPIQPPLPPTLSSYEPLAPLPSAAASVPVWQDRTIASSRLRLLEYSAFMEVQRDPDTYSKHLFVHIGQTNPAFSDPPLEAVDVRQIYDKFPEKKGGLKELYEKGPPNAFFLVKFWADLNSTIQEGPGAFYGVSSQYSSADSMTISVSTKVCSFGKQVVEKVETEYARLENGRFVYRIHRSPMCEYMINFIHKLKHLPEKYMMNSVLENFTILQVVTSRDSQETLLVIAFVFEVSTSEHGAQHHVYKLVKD
TEAD3 YAP50-100, sequence (Q99594 218-435): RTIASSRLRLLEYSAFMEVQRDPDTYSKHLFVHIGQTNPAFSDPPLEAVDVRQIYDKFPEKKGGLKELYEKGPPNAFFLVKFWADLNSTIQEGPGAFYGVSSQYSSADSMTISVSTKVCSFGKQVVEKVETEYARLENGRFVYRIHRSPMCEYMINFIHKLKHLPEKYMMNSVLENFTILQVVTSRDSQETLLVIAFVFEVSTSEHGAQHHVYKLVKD
TEAD1, sequence (P28347 whole entry, species assumed): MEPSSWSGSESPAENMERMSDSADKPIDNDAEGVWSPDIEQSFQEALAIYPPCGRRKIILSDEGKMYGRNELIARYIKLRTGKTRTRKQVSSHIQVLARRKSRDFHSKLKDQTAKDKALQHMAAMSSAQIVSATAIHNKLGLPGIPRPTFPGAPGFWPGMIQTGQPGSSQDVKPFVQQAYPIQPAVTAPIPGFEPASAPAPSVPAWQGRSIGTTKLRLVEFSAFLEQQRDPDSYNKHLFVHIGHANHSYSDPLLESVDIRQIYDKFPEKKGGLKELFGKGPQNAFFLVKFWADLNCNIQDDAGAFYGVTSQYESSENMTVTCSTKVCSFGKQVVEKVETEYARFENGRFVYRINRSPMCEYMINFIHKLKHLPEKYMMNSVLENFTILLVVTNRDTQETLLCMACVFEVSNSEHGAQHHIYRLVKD
TEAD4 YAP50-100, sequence (Q15561 217-434): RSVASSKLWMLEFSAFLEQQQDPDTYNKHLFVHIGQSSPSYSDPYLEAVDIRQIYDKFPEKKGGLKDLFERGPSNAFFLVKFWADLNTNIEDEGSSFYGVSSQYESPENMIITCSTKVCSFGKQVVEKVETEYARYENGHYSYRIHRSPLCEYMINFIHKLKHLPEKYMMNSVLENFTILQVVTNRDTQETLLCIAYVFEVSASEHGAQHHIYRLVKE
TEAD2 YAP50-100, sequence (Q15562 217-447): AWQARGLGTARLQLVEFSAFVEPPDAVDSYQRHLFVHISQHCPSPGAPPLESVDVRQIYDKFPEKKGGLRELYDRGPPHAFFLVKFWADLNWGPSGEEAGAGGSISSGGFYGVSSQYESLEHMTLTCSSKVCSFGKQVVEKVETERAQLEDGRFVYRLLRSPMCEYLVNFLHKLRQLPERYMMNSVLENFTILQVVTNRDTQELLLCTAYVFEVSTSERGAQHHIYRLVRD
TEAD4, sequence (Q15561 whole entry, species assumed): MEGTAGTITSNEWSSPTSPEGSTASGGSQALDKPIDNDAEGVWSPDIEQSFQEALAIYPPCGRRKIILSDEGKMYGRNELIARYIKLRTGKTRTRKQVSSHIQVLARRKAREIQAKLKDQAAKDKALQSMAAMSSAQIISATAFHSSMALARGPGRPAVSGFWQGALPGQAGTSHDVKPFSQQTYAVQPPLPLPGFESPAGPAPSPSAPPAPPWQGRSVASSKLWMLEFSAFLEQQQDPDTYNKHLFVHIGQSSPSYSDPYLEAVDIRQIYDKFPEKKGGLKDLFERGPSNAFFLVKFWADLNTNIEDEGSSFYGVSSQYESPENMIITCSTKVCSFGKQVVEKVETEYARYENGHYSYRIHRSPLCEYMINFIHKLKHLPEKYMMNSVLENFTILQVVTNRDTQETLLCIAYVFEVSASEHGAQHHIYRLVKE
TEAD2, sequence (Q15562 whole entry): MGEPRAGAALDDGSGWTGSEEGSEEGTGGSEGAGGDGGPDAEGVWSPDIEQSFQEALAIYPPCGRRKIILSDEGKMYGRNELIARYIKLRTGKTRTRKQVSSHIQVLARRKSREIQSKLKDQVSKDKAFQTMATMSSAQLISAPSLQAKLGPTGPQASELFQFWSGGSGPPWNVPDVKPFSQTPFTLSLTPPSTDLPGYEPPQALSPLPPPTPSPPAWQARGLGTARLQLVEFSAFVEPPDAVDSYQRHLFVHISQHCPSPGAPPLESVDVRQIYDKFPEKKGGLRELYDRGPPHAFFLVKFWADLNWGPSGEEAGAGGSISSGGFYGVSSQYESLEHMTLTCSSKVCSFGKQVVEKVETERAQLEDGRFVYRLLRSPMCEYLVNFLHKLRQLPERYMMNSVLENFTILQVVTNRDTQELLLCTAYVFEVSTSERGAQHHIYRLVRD

`C=C(CNc1cc(-c2ccc(C(C)C(F)(F)F)cc2)c2c(c1C#N)CCO2)C(=O)O` (single isomer, unassigned) [Enantiomer C from Example 16, 2-(((4-cyano-7-(4-(1,1,1-trifluoropropan-2-yl)phenyl)-2,3-dihydrobenzofuran-5-yl)amino)methyl)acrylic acid] was tested, and the IC50 (TEAD1) was 20 nM, the IC50 (TEAD2) was 40 nM and the IC50 (TEAD3) was 3000 nM. For the same compound, the IC50 (TEAD4) was 10 nM, the EC50 (TEAD1 YAP50-100) was 10 nM and the EC50 (TEAD2 YAP50-100) was 20 nM. It also gave an EC50 (TEAD3 YAP50-100) of 5900 nM and an EC50 (TEAD4 YAP50-100) of 10 nM.
With `C=C(CNc1cc(-c2ccc(C(C)C)cc2F)c2c(c1C#N)CCO2)C(=O)O` [Compound 30, 2-[[[4-cyano-7-(2-fluoro-4-isopropyl-phenyl)-2,3-dihydrobenzofuran-5-yl]amino]methyl]prop-2-enoic acid] the IC50 (TEAD1) was 50 nM, the IC50 (TEAD2) was 100 nM and the IC50 (TEAD3) was 5900 nM. The IC50 (TEAD4) was 30 nM, the EC50 (TEAD1 YAP50-100) was 30 nM and the EC50 (TEAD2 YAP50-100) was 40 nM. The EC50 (TEAD3 YAP50-100) was 8200 nM and the EC50 (TEAD4 YAP50-100) was 40 nM.
In the case of `C=C(CNc1cc(-c2ccc(C(C)(F)F)cc2)c2c(c1C#N)CCO2)C(=O)O` [Compound 19, 2-[[[4-cyano-7-[4-(1,1-difluoroethyl)phenyl]-2,3-dihydrobenzofuran-5-yl]amino]methyl]prop-2-enoic acid], the IC50 (TEAD1) is reported as 50 nM, the IC50 (TEAD2) is reported as 350 nM and the IC50 (TEAD3) is reported as 6400 nM. The IC50 (TEAD4) was 110 nM, the EC50 (TEAD1 YAP50-100) was 40 nM and the EC50 (TEAD2 YAP50-100) was 190 nM. For the same compound, the EC50 (TEAD3 YAP50-100) was 15000 nM and the EC50 (TEAD4 YAP50-100) was 230 nM.
Compound `C=C(CNc1cc(-c2ccc(C(C)C)cc2)c2c(c1CO)CCO2)C(N)=O` [Compound 13, 2-[[[4-(hydroxymethyl)-7-(4-isopropylphenyl)-2,3-dihydrobenzofuran-5-yl]amino]methyl]prop-2-enamide] has an IC50 (TEAD1) of 780 nM, an IC50 (TEAD2) of 220 nM and an IC50 (TEAD3) of 11000 nM. The IC50 (TEAD4) was 180 nM, the EC50 (TEAD1 YAP50-100) was 330 nM and the EC50 (TEAD2 YAP50-100) was 40 nM. The EC50 (TEAD3 YAP50-100) was 22000 nM and the EC50 (TEAD4 YAP50-100) was 180 nM.
For `C=C(CNc1cc(-c2ccc(OC(F)(F)F)cc2)c2c(c1C#N)CCO2)C(=O)O` [Compound 18, 2-[[[4-cyano-7-[4-(trifluoromethoxy)phenyl]-2,3-dihydrobenzofuran-5-yl]amino]methyl]prop-2-enoic acid], the IC50 (TEAD1) was 30 nM, the IC50 (TEAD2) was 140 nM and the IC50 (TEAD3) was 2500 nM. It also gave an IC50 (TEAD4) of 30 nM, an EC50 (TEAD1 YAP50-100) of 20 nM and an EC50 (TEAD2 YAP50-100) of 90 nM. For the same compound, the EC50 (TEAD3 YAP50-100) was 7800 nM and the EC50 (TEAD4 YAP50-100) was 60 nM.
`C=C(CNc1cc(-c2ccc(C(C)C)cc2)c2c(c1C#N)CCO2)C(=O)NO` [Compound 9, 2-[[[4-cyano-7-(4-isopropylphenyl)-2,3-dihydrobenzofuran-5-yl]amino]methyl]prop-2-enehydroxamic acid] showed an IC50 (TEAD1) of 280 nM, an IC50 (TEAD2) of 110 nM and an IC50 (TEAD3) of 2400 nM. For the same compound, the IC50 (TEAD4) was 120 nM, the EC50 (TEAD1 YAP50-100) was 190 nM and the EC50 (TEAD2 YAP50-100) was 50 nM. The EC50 (TEAD3 YAP50-100) was 2200 nM and the EC50 (TEAD4 YAP50-100) was 280 nM.
`C=C(CNc1cc(-c2ccc(C(C)C)cc2)c2c(c1C#N)CCO2)C(C)=O` [Compound 11, 7-(4-isopropylphenyl)-5-[(2-methylene-3-oxo-butyl)amino]-2,3-dihydrobenzofuran-4-carbonitrile] was tested, and the IC50 (TEAD1) was 180 nM, the IC50 (TEAD2) was 80 nM and the IC50 (TEAD3) was 130 nM. It also gave an IC50 (TEAD4) of 40 nM, an EC50 (TEAD1 YAP50-100) of 320 nM and an EC50 (TEAD2 YAP50-100) of 130 nM. The EC50 (TEAD3 YAP50-100) was 200 nM and the EC50 (TEAD4 YAP50-100) was 80 nM.
For `C=C(CNc1nc(-c2ccc(C(C)C)cc2)c2c(c1C#N)CCO2)C(=O)O` [Compound 22, 2-[[[4-cyano-7-(4-isopropylphenyl)-2,3-dihydrofuro[2,3-c]pyridin-5-yl]amino]methyl]prop-2-enoic acid], the IC50 (TEAD1) was 90 nM, the IC50 (TEAD2) was 100 nM and the IC50 (TEAD3) was 15000 nM. For the same compound, the IC50 (TEAD4) was 50 nM, the EC50 (TEAD1 YAP50-100) was 60 nM and the EC50 (TEAD2 YAP50-100) was 60 nM. It also gave an EC50 (TEAD3 YAP50-100) of over 50000 nM and an EC50 (TEAD4 YAP50-100) of 100 nM.
